Patent US7767240B2, “Microbiological control in poultry processing” (priority 2001, dated 2010)

Columns and labels:
Assay type in all cases: cell-based
[1] = tested on: Escherichia coli ATCC 11229; test: Individual bacteria count per bird at pH 8 (Example 3); conditions: 25 birds per treatment, control 3055
Protocol: (§1) This group of tests was conducted to determine the effect of Clorox® bleach, Aquatize® biocide, and 1,3-dibromo-5,5-dimethylhydantoin (DBDMH) on carcass bacteria (Escherichia coli field strain) residual after 1,5-hour in a chill tank “soup”. Tests were conducted with soups at pH 7, pH 8 and pH 9 (adjusted by trisodium phosphate) for whole bird bacteria counts. Tests at pH 8 were conducted for individual bacteria counts.
(§2) In general the tests involved normal processing of 56-day-old birds and immersing the carcasses first in a warm bath containing 10^4 per mL Escherichia coli, 10^4 per mL Salmonella enteritidis, 10^4 per mL Pseudomonas aeruginosa, 10^4 per mL Campylobacter jejuni, and 10^4 per mL spoilage bacteria each from […] strains (Listeria monocytogenes and Shigella sonnei). The carcasses were then immersed in a chill tank “soup”, containing normal organic fluids (blood, fat, skin, and meat particles) and containing the microbiocides on the test.
(§3) The bacteria stock solution used for this group of tests was prepared by growing each bacteria sample in the appropriate broth shown in Table 12. […] The containers were observed and not allowed to develop a heavy, cloudy visual appearance which would indicate that the growth had developed for too long a period. Thus the solutions had the appearance of only being foggy or somewhat unclear.
(§4) The procedure used for whole bird wash sampling was as follows: • 1. All samples were kept at ≦50 degrees Fahrenheit following collection. • 2. Microbiological analyses of samples began within 24 hours of sample collection. • 3. Information on the individual sample identification, date of collection, time of collection (phase during shift), treatment group and location of sample point were recorded on each sample bottle. • 4. At each defined sample time, carcasses were taken individually from the processing line wearing latex or rubber gloves. The gloves were rinsed with alcohol between each collection. • 5. Any excess fluid was drained off from the carcass. Each individual carcass was transferred to a sterile stomacher bag. • 6. To each carcass contained in the sterile stomacher bag, 400 mL of Butterfield's Phosphate Diluent (BPD) was added while making sure to pour the BPD into the inside of the carcass cavity. The carcass was rinsed inside and out with a rocking motion for one minute (ca. 35 RPM). This was best done by grasping the broiler carcass with one hand and the closed top of the bag with the other then rocking with a reciprocal motion in a 18-24 inch arc, assuring that all surfaces (interior and exterior of the carcass) were rinsed. • 7. The rinse solutions from each stomacher bag was transferred into the sample bottles, taking care to ensure that the information on the date of collection, time of collection (phase during shift), treatment group and location of sampler point matched that of the sample. • 8. Each bottle was sealed with parafilm and placed into a styrene container with crushed or dry ice or frozen freezer packs for overnight delivery to a testing laboratory. • 9. All filled styrene containers were held in a chilled (not below freezing) area until within 1 to 2 hours of courier collection for shipment.
(§5) In greater detail the trial events and experimental design used in this group of tests were as follows: • a) Test microorganisms used were: • Escherichia coli ATCC 11229 • Pseudomonas aeruginosa ATCC 15442 • Salmonella enteritidis ATCC 13076 • Shigella sonnei ATCC 9290 • Listeria monocytogenes ATCC 7644 • Campylobacter jejuni ATCC 29428 • b) Test Procedure: All test strains were grown individually at 35° C. for 24 hours in the media specified in Table 12. Cells were harvested by centrifugation at 10,000×g for 10 minutes and washed twice with Butterfield's Phosphate Buffer (BPB of pH 7.2). Cells were resuspended in BPB to obtain a cell suspension of approximately 1.0×10^8 CFU/mL for each microorganism. […]

[2] = tested on: Campylobacter jejuni ATCC 29428; test: as above; conditions: 25 birds per treatment, control 1282
Protocol: as §1, §2, §3, §4, §5

[3] = tested on: Pseudomonas aeruginosa ATCC 15442; test: as above; conditions: 25 birds per treatment, control 2783
Protocol: as §1, §2, §3, §4, §5

[4] = tested on: Escherichia coli field strain; test: Chill water bacteria reduction (Example 2)
Protocol: The trial events and experimental design used were as follows: • a) For all treatments a total of 190 birds were processed in a normal fashion. Each treatment involved use of 10 birds. • b) A warm (100° F.) bath was prepared containing 5×10^4 DelMarVa (Delaware-Maryland farm area) field Escherichia coli stain bacteria per mL. At least 200 mL of total bath fluid was provided for each bird. • c) All birds (both controls and treated) were randomly immersed into the warm bath. Both the inside and outside carcass areas were immersed to assure complete coverage. • d) Each separate chill tank water solution (normal tap water adjusted pH to 8.5, ice added to produce temperatures of <45° F.) contained 2×10^3 per mL bacteria. • e) The chill tank water solutions (at least 750 mL each) were be prepared for each disinfecting treatment, and birds were immersed for a period of 1.5 hours. • f) Each 10 minutes during the 1.5 hour chilling period, the birds were completely lifted out of solution and then reimersed in the solution. After the 1.5 hour chilling period, the birds were taken from the chill water and drained for 30 seconds, then promptly (within 5 minutes) placed into a sterile whole bird stomacher bag containing 400 mL diluent (Butterfield's Phosphate Diluent) bacteria collection. • g) Diluent (400 mL) was added to each carcass contained in a sterile stomacher bag while making sure to pour the diluent into the inside of the abdominal cavity. The carcass was rinsed inside and out with a rocking motion for one minute (ca. 35 RPM). […] After the fluids had been diluted, 0.1 mL of fluid was be placed on a MacConkey agar plate and bacteria counts determined. In cases where the goal of a 25-250 count on the plate was not achieved, another dilution and replating were conducted. • j) After all carcasses for each treatment had been dipped, water sample bacteria were determined. • k) Total bacteria per bird were calculated. […]

CC1(C)C(=O)N(Br)C(=O)N1Br [DBDMH, 1,3-dibromo-5,5-dimethylhydantoin]
average bacteria count per bird, E. coli ([1]; 10 ppm): 357 per bird
average bacteria count per bird, E. coli ([1]; 20 ppm): 4 per bird
average bacteria count per bird, C. jejuni ([2]; 10 ppm): 183 per bird
average bacteria count per bird, C. jejuni ([2]; 20 ppm): 15 per bird
average bacteria count per bird, P. aeruginosa ([3]; 10 ppm): 289 per bird
average bacteria count per bird, P. aeruginosa ([3]; 20 ppm): 9 per bird
Mean Chill Water Bacteria Reduction (%) ([4]; 50 ppm Cl2 (equivalent)): 99.9999%
Mean Chill Water Bacteria Reduction (%) ([4]; 100 ppm Cl2 (equivalent)): 99.9999%
Mean Chill Water Bacteria Reduction (%) ([4]; 150 ppm Cl2 (equivalent)): 99.9999%
